Read-outs that look alike come from different tables or passages of the source.
Legend:
[1] = target: Avi-humanTEAD4 217-434 / Cy5 labeled humanYAP 60-100 (Homo sapiens (Human), UniProt Q15561); assay: TR-FRET YAP-TEAD4 in-vitro biochemical assay; type: binding; conditions: 1 nM Avi-humanTEAD4 217-434, 20 nM Cy5-humanYAP 60-100, 1 h room temperature
[2] = test system: NCI-H2052 Tet-On shYAP_2371 pLenti6 MCAT_Luc cells (YAP-dependent transcription); assay: YAP reporter gene activity assay (MCAT-luciferase), NCI-H2052; type: cell-based; conditions: 24 hours incubation, BrightGlo luminescence
Method in brief: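 NCI-H2052 cells carrying an MCAT-luciferase reporter and a tetracycline-inducible YAP 3′UTR shRNA were treated with eleven 2-fold compound dilutions (0.1% DMSO) for 24 h at 37 °C. BrightGlo luminescence was background-subtracted and expressed as % of DMSO control. IC50 came from a four-parameter fit; MKN-45/Ubc-luc cells served as the specificity counterscreen.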

MKN-45/Ubc-luc cells [3] = assay: Reporter gene specificity control (Ubc-luciferase), MKN-45
Procedure: As a specificity control, MKN-45 cells were stably transduced with a Ubc-Luc reporter construct, in which constitutive expression of firefly luciferase is driven by the promoter of the ubiquitin C housekeeping gene.
Stock solutions of compounds were prepared at a concentration of 10 mM in DMSO and stored at 4° C. Where necessary to afford a full dose-response curve, the stock solutions were pre-diluted in DMSO to 1'000-fold the desired reduced start concentration. On the day after cell seeding, eleven 2-fold serial dilutions of each compound were dispensed directly into the cell assay plates using a HP 300D non-contact Digital Dispenser (TECAN, Mannedorf, Switzerland). The final concentration of DMSO was normalized to 0.1% in all wells.
The ability of compounds to inhibit YAP-dependent transcription was assessed in NCI-H2052 Tet-On shYAP_2371 pLenti6 MCAT_Luc cells, while specificity (lack of unspecific inhibition of luciferase expression of activity) was assessed in MKN-45/Ubc-luc cells. […] Following incubation for 24 hours at 37° C., compound-mediated modulation of reporter-gene activity was quantified 5 min after addition of 20 μl BrightGlo (Promega, Cat #E2620), by measuring luminescence intensity on a multi-mode plate-reader (TECAN, Männedorf, Switzerland, Integration time 100 ms). For data analysis, the assay background value determined in wells containing medium, but no cells, was subtracted from all data points. Dose-dependent compound effects were expressed as % of vehicle-treated control (luminescence signal produced by cells receiving DMSO only) and IC50s calculated using a four-parametric fit model.

MKN-45/Ubc-luc cells [4] = assay: Proliferation assay (resazurin), MKN-45; type: cell-based; conditions: 72 hours incubation
[5] = test system: NCI-H2052 Tet-On shYAP_2371 pLenti6 MCAT_Luc cells; assay: Proliferation assay (resazurin), NCI-H2052; type: cell-based; conditions: 72 hours incubation
Method in brief: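 The NCI-H2052 line carries a Tet-inducible shRNA against the YAP1 3′UTR and an MCAT luciferase reporter. The day after seeding, it received eleven 2-fold compound dilutions at 0.1% DMSO, and viability was read by resazurin fluorescence.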

[6] = Homo sapiens, MKN-45, 24 h, read-out: Reporter gene assay MKN-45 IC50 [μM], MKN-45/Ubc-luc cells (YAP deleted, specificity control), 24 hours incubation

Chain of Avi-humanTEAD4 217-434 / Cy5 labeled humanYAP 60-100 (Q15561 217-434): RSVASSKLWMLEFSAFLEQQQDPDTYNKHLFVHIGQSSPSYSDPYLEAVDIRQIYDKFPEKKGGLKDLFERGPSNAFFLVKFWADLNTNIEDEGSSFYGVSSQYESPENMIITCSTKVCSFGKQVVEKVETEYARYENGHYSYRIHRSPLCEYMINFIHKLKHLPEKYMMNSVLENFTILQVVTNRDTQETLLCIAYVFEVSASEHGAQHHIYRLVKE

Compound: COc1ccc(C(N)=O)c(-c2c(Cl)ccc3c2C[C@](c2ccccc2)(C(C)N)O3)c1F (stereo partly drawn) [Example 168, 2-((2S,4S)-2-(1-Aminoethyl)-5-chloro-2-phenyl-2,3-dihydrobenzofuran-4-yl)-3-fluoro-4-methoxybenzamide]
- IC50 [1]: 12 nM
- IC50 ([2]; Homo sapiens, NCI-H2052, 24 h): 253 nM
- IC50 (MKN-45/Ubc-luc cells [3]; [6]): > 10 µM
- GI50 (MKN-45/Ubc-luc cells [4]; Homo sapiens): > 10000 nM
- GI50 ([5]; Homo sapiens, NCI-H2052, 72 h): 267 nM

Compound: CNC(=O)c1ccc(OCCO)c(F)c1-c1c(Cl)c(F)cc2c1C[C@](c1ccccc1)([C@@H]1CCCN1)O2 (atropisomer, axis not shown) [Example 153, 2-((2S,4S)-5-Chloro-6-fluoro-2-phenyl-2-((S)-pyrrolidin-2-yl)-2,3-dihydrobenzofuran-4-yl)-3-fluoro-4-(2-hydroxyethoxy)-N-methylbenzamide]
- IC50 [1]: < 1 nM
- IC50 ([2]; Homo sapiens, NCI-H2052, 24 h): 24 nM
- IC50 (MKN-45/Ubc-luc cells [3]; [6]): > 10 µM
- GI50 (MKN-45/Ubc-luc cells [4]; Homo sapiens): > 10000 nM
- GI50 ([5]; Homo sapiens, NCI-H2052, 72 h): 104 nM

Compound: COc1ccc(C(N)=O)c(-c2c(Cl)ccc3c2[C@H](O)[C@@](CN)(c2ccccc2)O3)c1F (atropisomer, axis not shown) [Example 86, 2-((2S,3S,4S)-2-(Aminomethyl)-5-chloro-3-hydroxy-2-phenyl-2,3-dihydrobenzofuran-4-yl)-3-fluoro-4-methoxybenzamide]
- IC50 [1]: 3 nM
- IC50 ([2]; Homo sapiens, NCI-H2052, 24 h): 119 nM
- IC50 (MKN-45/Ubc-luc cells [3]; [6]): > 10 µM
- GI50 (MKN-45/Ubc-luc cells [4]; Homo sapiens): > 10000 nM
- GI50 ([5]; Homo sapiens, NCI-H2052, 72 h): 129 nM

Compound: C[C@H](O)COc1ccc(C(N)=O)c(-c2c(Cl)ccc3c2C[C@@](CN)(c2ccccc2)O3)c1F (atropisomer, axis not shown) [Example 13, 2-((2S,4S)-2-(aminomethyl)-5-chloro-2-phenyl-2,3-dihydrobenzofuran-4-yl)-3-fluoro-4-((S)-2-hydroxypropoxy)benzamide]
- IC50 [1]: 6 nM
- IC50 ([2]; Homo sapiens, NCI-H2052, 24 h): 102 nM
- IC50 (MKN-45/Ubc-luc cells [3]; [6]): > 10 µM
- GI50 (MKN-45/Ubc-luc cells [4]; Homo sapiens): > 10000 nM
- GI50 ([5]; Homo sapiens, NCI-H2052, 72 h): 166 nM

Compound: NC(=O)c1ccc(OCCO)c(F)c1-c1c(Cl)c(F)cc2c1C[C@@](CN[C@H]1C[C@H](CO)C1)(c1ccccc1)O2 (atropisomer, axis not shown) [Example 64a, 2-((2S,4S)-5-chloro-6-fluoro-2-((((trans)-3-(hydroxymethyl)cyclobutyl)amino)methyl)-2-phenyl-2,3-dihydrobenzofuran-4-yl)-3-fluoro-4-(2-hydroxyethoxy)benzamide]
- IC50 [1]: 2 nM
- IC50 ([2]; Homo sapiens, NCI-H2052, 24 h): 15 nM
- IC50 (MKN-45/Ubc-luc cells [3]; [6]): > 10 µM
- GI50 (MKN-45/Ubc-luc cells [4]; Homo sapiens): > 10000 nM
- GI50 ([5]; Homo sapiens, NCI-H2052, 72 h): 36 nM

Compound: NC(=O)c1ccc(OC(F)F)c(F)c1-c1c(Cl)c(F)cc2c1C[C@@](CN[C@H]1CC[C@@H](O)[C@H](F)C1)(c1ccccc1)O2 (atropisomer, axis not shown) [Example 81a, 2-((2S,4S)-5-chloro-6-fluoro-2-((((1S,3R,4R)-3-fluoro-4-hydroxycyclohexyl)amino)methyl)-2-phenyl-2,3-dihydrobenzofuran-4-yl)-4-(difluoromethoxy)-3-fluorobenzamide]
- IC50 [1]: 33 nM
- IC50 ([2]; Homo sapiens, NCI-H2052, 24 h): 231 nM
- IC50 (MKN-45/Ubc-luc cells [3]; [6]): > 10 µM
- GI50 (MKN-45/Ubc-luc cells [4]; Homo sapiens): > 10000 nM
- GI50 ([5]; Homo sapiens, NCI-H2052, 72 h): 467 nM

Compound: NC(=O)c1ccc(OC(F)F)c(F)c1-c1c(Cl)c(F)cc2c1C[C@](c1ccccc1)(C1CC(O)CN1)O2 (single isomer, unassigned) [Example 158]
- IC50 [1]: 5 nM
- IC50 ([2]; Homo sapiens, NCI-H2052, 24 h): 93 nM
- IC50 (MKN-45/Ubc-luc cells [3]; [6]): > 10 µM
- GI50 (MKN-45/Ubc-luc cells [4]; Homo sapiens): > 10000 nM
- GI50 ([5]; Homo sapiens, NCI-H2052, 72 h): 181 nM

Compound: C[C@@H](F)COc1ccc(C(N)=O)c(-c2c(Cl)ccc3c2C[C@@](CN)(c2ccccc2)O3)c1F (atropisomer, axis not shown) [Example 15, 2-((2S,4S)-2-(aminomethyl)-5-chloro-2-phenyl-2,3-dihydrobenzofuran-4-yl)-3-fluoro-4-((R)-2-fluoropropoxy)benzamide]
- IC50 [1]: 10 nM
- IC50 ([2]; Homo sapiens, NCI-H2052, 24 h): 270 nM
- IC50 (MKN-45/Ubc-luc cells [3]; [6]): > 10 µM
- GI50 (MKN-45/Ubc-luc cells [4]; Homo sapiens): > 10000 nM
- GI50 ([5]; Homo sapiens, NCI-H2052, 72 h): 276 nM

Compound: CNC(=O)c1ccc(OC)c(F)c1-c1c(Cl)c(F)cc2c1C[C@](c1ccccc1)([C@@H]1CCCN1)O2 [Example 175, 2-((2S,4S)-5-Chloro-6-fluoro-2-phenyl-2-((S)-pyrrolidin-2-yl)-2,3-dihydrobenzofuran-4-yl)-3-fluoro-4-methoxy-N-methylbenzamide]
- IC50 [1]: 4 nM
- IC50 [2]: 62 nM
- IC50 (MKN-45/Ubc-luc cells [3]; read-out: Reporter gene assay MKN-45 IC50, MKN-45/Ubc-luc cells (YAP deleted, specificity control), 24 hours incubation): 13 µM
- GI50 (MKN-45/Ubc-luc cells [4]): 7000 nM
- GI50 [5]: 50 nM

Compound: CNC[C@]1(c2ccccc2)Oc2cc(F)c(Cl)c(-c3c(C(N)=O)ccc(OCCO)c3F)c2[C@@H]1C (atropisomer, axis not shown) [Example 110, 2-((2S,3S,4S)-5-Chloro-6-fluoro-3-methyl-2-((methylamino)methyl)-2-phenyl-2,3-dihydrobenzofuran-4-yl)-3-fluoro-4-(2-hydroxyethoxy)benzamide]
- IC50 [1]: 1 nM
- IC50 ([2]; Homo sapiens, NCI-H2052, 24 h): 14 nM
- IC50 (MKN-45/Ubc-luc cells [3]; [6]): > 4 µM
- GI50 (MKN-45/Ubc-luc cells [4]; Homo sapiens): > 4000 nM
- GI50 ([5]; Homo sapiens, NCI-H2052, 72 h): 27 nM

Compound: CNC(=O)c1cnc(OCCO)c(F)c1-c1c(Cl)c(F)cc2c1C[C@](c1ccccc1)([C@@H]1CCCN1)N2 (atropisomer, axis not shown) [Example 173, 4-((2S,4S)-5-Chloro-6-fluoro-2-phenyl-2-((S)-pyrrolidin-2-yl)indolin-4-yl)-5-fluoro-6-(2-hydroxyethoxy)-N-methylnicotinamide]
- IC50 [1]: 14 nM
- IC50 ([2]; Homo sapiens, NCI-H2052, 24 h): 187 nM
- IC50 (MKN-45/Ubc-luc cells [3]; [6]): > 20 µM
- GI50 (MKN-45/Ubc-luc cells [4]; Homo sapiens): > 20000 nM
- GI50 ([5]; Homo sapiens, NCI-H2052, 72 h): 158 nM

Compound: COc1ccc(C(N)=O)c(-c2c(Cl)c(F)cc3c2C[C@@](CN)(c2ccccc2)O3)c1F (atropisomer, axis not shown) [Example 33, 2-((2S,4S)-2-(aminomethyl)-5-chloro-6-fluoro-2-phenyl-2,3-dihydrobenzofuran-4-yl)-3-fluoro-4-methoxybenzamide]
- IC50 [1]: 3 nM
- IC50 ([2]; Homo sapiens, NCI-H2052, 24 h): 161 nM
- IC50 (MKN-45/Ubc-luc cells [3]; [6]): > 10 µM
- GI50 (MKN-45/Ubc-luc cells [4]; Homo sapiens): > 10000 nM
- GI50 ([5]; Homo sapiens, NCI-H2052, 72 h): 161 nM

Compound: CNC(=O)c1ccc(OCCO)c(F)c1-c1c(Cl)c(F)cc2c1[C@H](C)[C@@](CN[C@H]1CC[C@](C)(O)CC1)(c1ccccc1)O2 (atropisomer, axis not shown) [Example 121, 2-((2S,3S,4S)-5-Chloro-6-fluoro-2-((((trans)-4-hydroxy-4-methylcyclohexyl)amino)methyl)-3-methyl-2-phenyl-2,3-dihydrobenzofuran-4-yl)-3-fluoro-4-(2-hydroxyethoxy)-N-methylbenzamide]
- IC50 [1]: 2 nM
- IC50 ([2]; Homo sapiens, NCI-H2052, 24 h): 20 nM
- IC50 (MKN-45/Ubc-luc cells [3]; [6]): > 10 µM
- GI50 (MKN-45/Ubc-luc cells [4]; Homo sapiens): > 10000 nM
- GI50 ([5]; Homo sapiens, NCI-H2052, 72 h): 36 nM

Compound: NC[C@@]1(c2ccccc2)Cc2c(ccc(Cl)c2-c2c(F)cccc2C(N)=O)O1 (atropisomer, axis not shown) [Example 4a-1, 2-((2S,4S)-2-(aminomethyl)-5-chloro-2-phenyl-2,3-dihydrobenzofuran-4-yl)-3-fluorobenzamide]
- IC50 [1]: 20 nM
- IC50 ([2]; Homo sapiens, NCI-H2052, 24 h): 600 nM
- IC50 (MKN-45/Ubc-luc cells [3]; [6]): > 10 µM
- GI50 (MKN-45/Ubc-luc cells [4]; Homo sapiens): > 10000 nM
- GI50 ([5]; Homo sapiens, NCI-H2052, 72 h): 590 nM

Compound: C[C@@H](O)COc1ccc(C(N)=O)c(-c2c(Cl)ccc3c2C[C@@](CN)(c2ccccc2)O3)c1F (atropisomer, axis not shown) [Example 14, 2-((2S,4S)-2-(aminomethyl)-5-chloro-2-phenyl-2,3-dihydrobenzofuran-4-yl)-3-fluoro-4-((R)-2-hydroxypropoxy)benzamide]
- IC50 [1]: 15 nM
- IC50 ([2]; Homo sapiens, NCI-H2052, 24 h): 176 nM
- IC50 (MKN-45/Ubc-luc cells [3]; [6]): > 10 µM
- GI50 (MKN-45/Ubc-luc cells [4]; Homo sapiens): > 10000 nM
- GI50 ([5]; Homo sapiens, NCI-H2052, 72 h): 190 nM

Compound: C[C@H]1c2c(cc(F)c(Cl)c2-c2c(C(N)=O)ccc(OCCO)c2F)O[C@]1(CN[C@H]1CC[C@@](C)(O)CC1)c1ccccc1 (atropisomer, axis not shown) [Example 117b, 2-((2S,3S,4S)-5-chloro-6-fluoro-2-((((cis)-4-hydroxy-4-methylcyclohexyl)amino)methyl)-3-methyl-2-phenyl-2,3-dihydrobenzofuran-4-yl)-3-fluoro-4-(2-hydroxyethoxy)benzamide]
- IC50 [1]: 1 nM
- IC50 ([2]; Homo sapiens, NCI-H2052, 24 h): 16 nM
- IC50 (MKN-45/Ubc-luc cells [3]; [6]): > 10 µM
- GI50 (MKN-45/Ubc-luc cells [4]; Homo sapiens): > 10000 nM
- GI50 ([5]; Homo sapiens, NCI-H2052, 72 h): 30 nM

Compound: CNC[C@@]1(c2ccccc2)Cc2c(cc(F)c(Cl)c2-c2c(C(=O)NC)ccc(OC[C@H](C)O)c2F)O1 (atropisomer, axis not shown) [Example 52, 2-((2S,4S)-5-chloro-6-fluoro-2-((methylamino)methyl)-2-phenyl-2,3-dihydrobenzofuran-4-yl)-3-fluoro-4-((S)-2-hydroxypropoxy)-N-methylbenzamide]
- IC50 [1]: 11 nM
- IC50 ([2]; Homo sapiens, NCI-H2052, 24 h): 109 nM
- IC50 (MKN-45/Ubc-luc cells [3]; [6]): > 10 µM
- GI50 (MKN-45/Ubc-luc cells [4]; Homo sapiens): > 10000 nM
- GI50 ([5]; Homo sapiens, NCI-H2052, 72 h): 174 nM

Compound: C[C@H](O)COc1ccc(C(N)=O)c(-c2c(Cl)c(F)cc3c2C[C@](c2ccccc2)([C@@H]2CCCN2)O3)c1F (atropisomer, axis not shown) [Example 152, 2-((2S,4S)-5-Chloro-6-fluoro-2-phenyl-2-((S)-pyrrolidin-2-yl)-2,3-dihydrobenzofuran-4-yl)-3-fluoro-4-((S)-2-hydroxypropoxy)benzamide]
- IC50 [1]: 2 nM
- IC50 ([2]; Homo sapiens, NCI-H2052, 24 h): 36 nM
- IC50 (MKN-45/Ubc-luc cells [3]; [6]): > 10 µM
- GI50 (MKN-45/Ubc-luc cells [4]; Homo sapiens): > 10000 nM
- GI50 ([5]; Homo sapiens, NCI-H2052, 72 h): 25 nM

Reference: patent publication US12083101B2, “Biaryl derivatives as YAP/TAZ-TEAD protein-protein interaction inhibitors” (Novartis AG, priority 2020, dated 2024)
